From patent US7304174B2, “CaSR antagonist” (Japan Tobacco Inc., priority 2003, dated 2007)

Target: T1, human calcium receptor (Homo sapiens, UniProt P41180)
T1 construct: expressed in transfected cells; host or cells: cell strain derived from rat adrenal, co-transformed with luciferase cDNA
T1 sequence (P41180 20-1078): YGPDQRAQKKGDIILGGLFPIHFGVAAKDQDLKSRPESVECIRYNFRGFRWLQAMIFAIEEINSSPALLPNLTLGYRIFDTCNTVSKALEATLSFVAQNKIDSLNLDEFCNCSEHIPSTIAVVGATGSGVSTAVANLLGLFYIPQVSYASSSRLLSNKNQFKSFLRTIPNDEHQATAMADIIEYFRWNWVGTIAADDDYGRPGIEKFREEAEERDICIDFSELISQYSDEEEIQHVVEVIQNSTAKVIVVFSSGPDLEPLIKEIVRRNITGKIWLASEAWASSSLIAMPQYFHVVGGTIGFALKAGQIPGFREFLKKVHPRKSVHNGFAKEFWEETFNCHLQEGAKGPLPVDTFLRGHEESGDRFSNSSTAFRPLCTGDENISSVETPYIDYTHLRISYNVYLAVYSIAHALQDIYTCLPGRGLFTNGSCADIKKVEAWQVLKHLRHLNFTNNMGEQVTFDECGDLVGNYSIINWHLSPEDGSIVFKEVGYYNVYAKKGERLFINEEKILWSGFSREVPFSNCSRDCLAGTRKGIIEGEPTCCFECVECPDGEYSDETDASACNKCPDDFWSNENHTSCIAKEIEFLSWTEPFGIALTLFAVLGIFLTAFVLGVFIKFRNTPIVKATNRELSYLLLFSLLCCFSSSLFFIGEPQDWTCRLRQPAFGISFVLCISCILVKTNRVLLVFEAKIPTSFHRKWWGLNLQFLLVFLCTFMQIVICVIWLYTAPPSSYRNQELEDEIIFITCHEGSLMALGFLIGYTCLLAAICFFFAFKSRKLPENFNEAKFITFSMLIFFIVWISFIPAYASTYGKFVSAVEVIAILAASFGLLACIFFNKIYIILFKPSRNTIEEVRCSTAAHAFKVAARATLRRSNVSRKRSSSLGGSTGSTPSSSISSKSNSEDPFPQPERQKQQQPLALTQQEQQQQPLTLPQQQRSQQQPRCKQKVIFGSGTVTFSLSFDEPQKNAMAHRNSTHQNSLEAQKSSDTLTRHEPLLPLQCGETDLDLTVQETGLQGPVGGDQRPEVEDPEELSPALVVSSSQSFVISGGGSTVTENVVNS
Test: Evaluation of antagonistic action on calcium receptor using reporter gene (luciferase)
Assay type: cell-based
Settings: transformed rat adrenal derived cells, 5 mM calcium chloride, culture 4 hrs, luciferase activity; read-out: Reporter gene assay (IC50, concentration showing 50% inhibitory rate)
Method: Evaluation of Antagonistic Action on Calcium Receptor Using Reporter Gene
Luciferase cDNA and human calcium receptor cDNA were introduced into a cell strain derived from rat adrenal to transform the cells, and the transformed cells were cultured in a medium (80 μl, F12 medium containing 0.5% dialyzed horse serum and 0.25% dialyzed bovine fetal serum). A dimethyl sulfoxide solution containing a test compound at 0.1-10000 μM was diluted 100-fold with the medium and added to the test compound group at 10 μl per well (dimethyl sulfoxide final concentration 0.1%). In the same manner as in test compound group, dimethyl sulfoxide 100-fold diluted with medium was added to a control group and a blank group. Then, 50 mM calcium chloride-containing medium was added to every well except the blank group at 10 μl per well (final concentration 5 mM). A medium containing 50 mM calcium chloride was added to the control group at 10 μl per well, such that the final calcium concentration of the medium became 5 mM. A medium alone was added to the blank group. After culture for 4 hrs, luciferase substrate was added and the luciferase activity was measured with a photoluminometer. The inhibitory rate (%) was calculated from the obtained measured values according to the following formula.
Based on the results, the concentration (IC50) showing 50% inhibitory rate was determined. The results are shown in the aforementioned Tables 1 to 60.

IC50 | Molecule
0.021 µM | 4-[2-[1-[(2R)-3-[[1-(3-fluoro-4-methylphenyl)-2-methylpropan-2-yl]amino]-2-hydroxypropoxy]ethyl]phenoxy]-3-methoxybenzoic acid [Example 2-2]
0.03 µM | CC(OC[C@H](O)CNC(C)(C)Cc1ccc2ccccc2c1)c1ccccc1Cc1ccc(C(=O)O)cc1 (stereo partly drawn) [2-14′]
0.026 µM | CC(OC[C@H](O)CNC(C)(C)Cc1ccc2ccccc2c1)c1ccccc1OCc1cccc(C(=O)O)c1 (stereo partly drawn) [2-21′]
0.023 µM | CC(OC[C@H](O)CNC(C)(C)Cc1ccc2ccccc2c1)c1ccccc1OCc1ccc(C(=O)O)cc1 (stereo partly drawn) [2-22′]
0.014 µM | Cc1cc(CC(C)(C)NC[C@@H](O)CO[C@H](C)c2ccccc2-c2ccc(C(=O)O)c(C)c2)ccc1Cl [Example 1-4, 2′-[1-[(2R)-3-[[1-(4-chloro-3-methylphenyl)-2-methylpropan-2-yl]amino]-2-hydroxypropoxy]ethyl]-3-methylbiphenyl-4-carboxylic acid]
0.003 µM | Cc1cc(-c2ccccc2[C@@H](C)OC[C@H](O)CNC(C)(C)Cc2ccc(C)c(F)c2F)ccc1C(=O)O [Example 1-5, 2′-[1-[(2R)-3-[[1-(2,3-difluoro-4-methylphenyl)-2-methylpropan-2-yl]amino]-2-hydroxypropoxy]ethyl]-3-methylbiphenyl-4-carboxylic acid]
0.015 µM | Cc1ccc(CC(C)(C)NC[C@@H](O)CO[C@H](C)c2ccccc2-c2ccc(C(=O)O)c(C)c2)c(F)c1 [Example 1-7, 2′-[1-[(2R)-3-[[1-(2-fluoro-4-methylphenyl)-2-methylpropan-2-yl]amino]-2-hydroxypropoxy]ethyl]-3-methylbiphenyl-4-carboxylic acid]
0.015 µM | CCc1ccc(CC(C)(C)NC[C@@H](O)CO[C@H](C)c2ccccc2-c2ccc(C(=O)O)c(C)c2)cc1F [Example 1-8, 2′-[1-[(2R)-3-[[1-(4-ethyl-3-fluorophenyl)-2-methylpropan-2-yl]amino]-2-hydroxypropoxy]ethyl]-3-methylbiphenyl-4-carboxylic acid]
0.016 µM | Cc1cc(C(=O)O)cc(-c2ccccc2[C@@H](C)OC[C@H](O)CNC(C)(C)Cc2ccc3ccccc3c2)c1 [Example 1-9, 3-methyl-2′-[1-[(2R)-3-[[1-(naphthalen-2-yl)-2-methylpropan-2-yl]amino]-2-hydroxypropoxy]ethyl]biphenyl-5-carboxylic acid]
0.029 µM | COC(=O)c1cc(C(=O)OC)cc(-c2ccccc2[C@@H](C)OC[C@H](O)CNC(C)(C)Cc2ccc3ccccc3c2)c1 [Example 1-10, methyl 2′-[1-[(2R)-3-[[1-(naphthalen-2-yl)-2-methylpropan-2-yl]amino]-2-hydroxypropoxy]ethyl]biphenyl-3,5-dicarboxylate]
0.018 µM | Cc1cc(-c2ccccc2[C@H](OC[C@H](O)CNC(C)(C)Cc2ccc3ccccc3c2)C2CC2)ccc1C(=O)O [Example 1-11, 2′-[(cyclopropyl)[(2R)-3-[[1-(naphthalen-2-yl)-2-methylpropan-2-yl]amino]-2-hydroxypropoxy]methyl]-3-methylbiphenyl-4-carboxylic acid]
0.013 µM | Cc1cc(-c2ccccc2[C@@H](C)OC[C@H](O)CNC(C)(C)Cc2ccc3ccccc3c2)ccc1C(=O)O [Example 1-12, 2′-[1-[(2R)-3-[[1-(naphthalen-2-yl)-2-methylpropan-2-yl]amino]-2-hydroxypropoxy]ethyl]-3-methylbiphenyl-4-carboxylic acid]
0.015 µM | Cc1cc(-c2ccccc2[C@@H](C)OC[C@H](O)CNC(C)(C)Cc2ccc3ccccc3c2)ccc1C(=O)O [Example 1-13, 2′-[1-[(2R)-3-[[1-(naphthalen-2-yl)-2-methylpropan-2-yl]amino]-2-hydroxypropoxy]ethyl]-3-methylbiphenyl-4-carboxylic acid]
0.006 µM | Cc1ccc(CC(C)(C)NC[C@@H](O)CO[C@@H](c2ccccc2-c2ccc(C(=O)O)c(C)c2)C2CC2)cc1F [Example 1-14, 2′-[(cyclopropyl)[(2R)-3-[[1-(3-fluoro-4-methylphenyl)-2-methylpropan-2-yl]amino]-2-hydroxypropoxy]methyl]-3-methylbiphenyl-4-carboxylic acid]
0.012 µM | Cc1ccc(CC(C)(C)NC[C@@H](O)CO[C@H](C)c2ccccc2-c2ccc(C(=O)O)c(C)c2)cc1F [Example 1-15, 2′-[1-[(2R)-3-[[1-(3-fluoro-4-methylphenyl)-2-methylpropan-2-yl]amino]-2-hydroxypropoxy]ethyl]-3-methylbiphenyl-4-carboxylic acid]
0.011 µM | Cc1ccc(CC(C)(C)NC[C@@H](O)CO[C@H](C)c2ccccc2-c2ccc(C(=O)O)c(C)c2)cc1F [Example 1-16, 2′-[1-[(2R)-3-[[1-(3-fluoro-4-methylphenyl)-2-methylpropan-2-yl]amino]-2-hydroxypropoxy]ethyl]-3-methylbiphenyl-4-carboxylic acid]
0.015 µM | Cc1cc(C(=O)O)cc(-c2ccccc2[C@@H](C)OC[C@H](O)CNC(C)(C)Cc2ccc(C)c(F)c2)c1 [Example 1-17, 2′-[1-[(2R)-3-[[1-(3-fluoro-4-methylphenyl)-2-methylpropan-2-yl]amino]-2-hydroxypropoxy]ethyl]-3-methylbiphenyl-5-carboxylic acid]
0.016 µM | Cc1cc(-c2ccccc2C(OC[C@H](O)CNC(C)(C)Cc2ccc(Cl)cc2F)C2CC2)ccc1C(=O)O (stereo partly drawn) [Example 1-18, 2′-[(cyclopropyl)[(2R)-3-[[1-(4-chloro-2-fluorophenyl)-2-methylpropan-2-yl]amino]-2-hydroxypropoxy]methyl]-3-methylbiphenyl-4-carboxylic acid]
0.005 µM | Cc1cc(-c2ccccc2[C@H](OC[C@H](O)CNC(C)(C)Cc2ccc(Cl)c(F)c2)C2CC2)ccc1C(=O)O [Example 1-19, 2′-[(cyclopropyl)[(2R)-3-[[1-(4-chloro-3-fluorophenyl)-2-methylpropan-2-yl]amino]-2-hydroxypropoxy]methyl]-3-methylbiphenyl-4-carboxylic acid]
0.04 µM | COc1ccc(CC(C)(C)NC[C@@H](O)CO[C@H](C)c2ccccc2-c2ccc(C(=O)O)c(C)c2)cc1F [Example 1-20, 2′-[1-[(2R)-3-[[1-(3-fluoro-4-methoxyphenyl)-2-methylpropan-2-yl]amino]-2-hydroxypropoxy]ethyl]-3-methylbiphenyl-4-carboxylic acid]
0.013 µM | Cc1ccc(CC(C)(C)NC[C@@H](O)CO[C@H](C)c2ccccc2-c2ccc(C(=O)O)c(C)c2)cc1C [Example 1-21, 3-methyl-2′-[1-[(2R)-3-[[1-(3,4-dimethylphenyl)-2-methylpropan-2-yl]amino]-2-hydroxypropoxy]ethyl]biphenyl-4-carboxylic acid]
0.012 µM | Cc1ccc(CC(C)(C)NC[C@@H](O)CO[C@H](C)c2ccccc2-c2ccc(C(=O)O)c(C)c2)cc1 [Example 1-22, 2′-[1-[(2R)-3-[[1-(4-methylphenyl)-2-methylpropan-2-yl]amino]-2-hydroxypropoxy]ethyl]-3-methylbiphenyl-4-carboxylic acid]
0.016 µM | COc1cc(CC(C)(C)NC[C@@H](O)CO[C@H](C)c2ccccc2-c2ccc(C(=O)O)c(C)c2)ccc1Cl [Example 1-23, 2′-[1-[(2R)-3-[[1-(4-chloro-3-methoxyphenyl)-2-methylpropan-2-yl]amino]-2-hydroxypropoxy]ethyl]-3-methylbiphenyl-4-carboxylic acid]
0.02 µM | CCc1ccc(CC(C)(C)NC[C@@H](O)CO[C@H](C)c2ccccc2-c2ccc(C(=O)O)c(C)c2)cc1 [Example 1-24, 2′-[1-[(2R)-3-[[1-(4-ethylphenyl)-2-methylpropan-2-yl]amino]-2-hydroxypropoxy]ethyl]-3-methylbiphenyl-4-carboxylic acid]
